“And” between values parts separate entries of the source, which are not always exact repeats. Equal values may be shown once. “Also recorded” adds a separate entry of the source.
How the values were obtained:
[1] = tested on: male Sprague-Dawley rats; assay: Histopathology of liver after dosing galactosamine HCl; assay type: in vivo, rat; conditions: for histopathological changes: 200 mg/kg i.p.
Excerpt: (§1) Thirty young adult age-matched male Sprague-Dawley rats were obtained from Charles River, France. After observation to ensure that they each appeared healthy they were placed in individual metabolism cages with free access to water and a standard commercial laboratory diet (diet AO4C from Usine d'Alimentation Rationnelle, Villemoisson-sur-Orge, France). The laboratory temperature was maintained at 20.+−−.2 degrees C. and the relative humidity at 60.±.20%. The laboratory air was filtered and changed 14 times per hour. A fixed ‘12 hours light-12 hours dark’ cycle was imposed. The study commenced after a short period of cage ‘acclimatisation’. At the time of dosing (at the start of day 1) the growing rats were each approximately 260 g in mass. Galactosamine (abbreviated GaIN) HCl (from Sigma, France) was dissolved in physiological saline and dosed by intraperitoneal injection at either 200 mg/kg or at 800 mg/kg; ten animals (nos. 101-110) received the low dose and ten animals (nos. 201-210) received the high dose. Ten control animals (nos. 1-10) received an oral dose of corn oil. Five of each group of ten rats were euthanased by means of CO2 on day 2 with the remainder being euthanased by the same technique on day 8. The early-euthanased rats were numbers 6-10, 106-110 and 206-210. The late-euthanased rats were numbers 1-5, 101-105 and 201-205. Blood was sampled from the orbital sinus, under isoflurane anaesthesia. Blood was sampled from all animals on day −3 and just prior to euthanasia on either day 2 or day 8. Following euthanasia each rat was sampled for histopathological examination with the sampling including taking ten liver samples from each rat (two from each liver lobe). The blood samples were collected into vials containing lithium heparin as anticoagulant and immediately centrifuged at approx. minus four degrees C. to separate plasma. A portion of each plasma sample was analysed at thirty degrees C. on an AU600 multiparametric clinical analyser (Olympus) for a range of clinical chemistry parameters including alanine aminotransferase (ALT) and aspartate aminotransferase (AST) amongst many others.

[2] = tested on: male Sprague-Dawley rats; assay: 1H NMR of post-dose urine after dosing galactosamine HCl (galactosamine excretion, endogenous metabolite changes, responder classification); assay type: in vivo, rat
Protocol: At the time of dosing (at the start of day 1) the growing rats were each approximately 260 g in mass. Galactosamine (abbreviated GaIN) HCl (from Sigma, France) was dissolved in physiological saline and dosed by intraperitoneal injection at either 200 mg/kg or at 800 mg/kg; ten animals (nos. 101-110) received the low dose and ten animals (nos. 201-210) received the high dose. Ten control animals (nos. 1-10) received an oral dose of corn oil.
Pre- and post-dose urine samples were collected for 7 hours daily into ice-cooled vessels containing sodium azide (0.100 ml of a 10% (w/v) solution of sodium azide in water) as an antibacterial preservative. There was an additional overnight urine collection on the day of dosing (from 7-24 hours post-dose). The urine collection apparatus was cleaned prior to each collection to minimise bacterial, food and faecal contamination. The urine samples were deep-frozen pending NMR analysis.
Urine samples were prepared for NMR analysis by mixing 400 Eli of urine with 200 μl of phosphate buffer (an 81:19 (v/v) mixture of 0.2 M Na2HPO4 and 0.2 M NaH2PO4; pH 7.4); if insufficient urine was available the shortfall was made up with purified water with a minimum of 200 μl of urine being used. The urine-buffer mixture was left to stand for 10 minutes at room temperature to enable buffering to take place and then centrifuged at 13,000 rpm for a further 10 minutes to remove suspended particulates. 500 μl of ‘clear’ buffered urine was transferred to an NMR tube and 50 μl of a TSP/D2O solution added. TSP (sodium 3-trimethylsilyl-[2,2,3,3-^2H4]-1-propionate) is a chemical shift reference compound (δ 0) used in the NMR experiment and the D2O provided a field/frequency lock for the NMR spectrometer. The concentration of the TSP/D2O solution was such as to give a final TSP concentration of 0.1 mM in the NMR tube. The NMR analyses were carried out at thirty degrees C. on a Bruker AMX 600 MHz NMR spectrometer with the NOESYPRESAT pulse sequence (Claridge, 1999) used to reduce the size of the water signal. The principal acquisition parameters were:
After acquisition, the NMR spectra were Fourier-transformed into 32768 data points following application of 0.3 Hz line-broadening by means of an exponential multiplication applied to the free induction decay signal. The spectra were phased to give an even baseline around the NMR signals and the chemical shift scale was set by assigning the value of δ 0 to the TSP peak. Prior to data-reduction, the baseline of each day −1 spectrum was moved to zero intensity using a straight-line baseline correction algorithm. All these spectral processing operations were carried out on a Silicon Graphics computer using the ‘xwinnmr’ software (Bruker GmBH).
On the basis of this visual examination, animals could be readily categorised as either (i) ‘responders’ or (ii) as ‘weak or non-responders’.

[3] = tested on: male Sprague-Dawley rats; assay: Clinical chemistry analysis of plasma after dosing galactosamine HCl; assay type: in vivo, rat; conditions: plasma 24 hours post-dosing
Protocol: as §1, with “At” for “Thirty young adult age-matched male Sprague-Dawley rats were obtained from Charles River, France. After observation to ensure that they each appeared healthy they were placed in individual metabolism cages with free access to water and a standard commercial laboratory diet (diet AO4C from Usine d'Alimentation Rationnelle, Villemoisson-sur-Orge, France). The laboratory temperature was maintained at 20.+−−.2 degrees C. and the relative humidity at 60.±.20%. The laboratory air was filtered and changed 14 times per hour. A fixed ‘12 hours light-12 hours dark’ cycle was imposed. The study commenced after a short period of cage ‘acclimatisation’. At”

[4] = tested on: male Sprague-Dawley rats; assay type: in vivo; conditions: 200 mg/kg i.p., individual animals 101-110
Protocol: Dosing was on the day designated as ‘day 1’ when the growing rats were each approximately 250 g in mass. Isoniazid (from Sigma, France) was dissolved in physiological saline and dosed by intraperitoneal injection at either 200 mg/kg or at 400 mg/kg; ten animals (nos. 101-110) received the low dose and ten animals (nos. 201-210) received the high dose. Ten control animals (nos. 1-10) received an intraperitoneal injection of saline.
It was intended that post-dose blood samples would be taken immediately before euthanasia with euthanasia being immediately followed by sampling for histopathology. As in Example 1, the intention was that five of each group of ten rats would be euthanased by means of CO2 at one day after dosing thereby providing early blood and histopathology samples; the remainder were to be euthanased by the same technique at seven days after dosing thereby providing late blood and histopathology samples. It was planned that the early-euthanased rats would be numbers 6-10, 106-110 and 206-210 whilst the late-euthanased rats would be numbers 1-5, 101-105 and 201-205. […] The urine samples were deep-frozen pending NMR analysis. […]

[5] = 200 mg/kg i.p., animals 101-105
[6] = 800 mg/kg i.p., animals 201-205, hydrochloride
[7] = 800 mg/kg i.p., day 2 and day 3, animals 201 and 202
[8] = 800 mg/kg i.p., day 3, animals 201 and 202
[9] = 800 mg/kg i.p., day 3, animals 201 and 202, hydrochloride
[10] = 200 mg/kg i.p., individual animals 106-110, hydrochloride
[11] = 800 mg/kg i.p., individual animals 206-210, hydrochloride

For Cl.N[C@H]1C(O)O[C@H](CO)[C@H](O)[C@@H]1O (stereo partly shown) [galactosamine HCl, galactosamine hydrochloride], the histopathological changes ([1]; day 2) was “No differences”, the histopathological changes ([1]; day 8) was “No differences” and the “animals with multifocal randomly scattered foci of hepatocellular necrosis” value ([1]; 800 mg/kg i.p., day 2) was “hepatocellular necrosis were present in 4/5”. The “severity of changes (hepatocellular necrosis)” value ([1]; 800 mg/kg i.p., day 2, individual animals 206-210, hydrochloride) was 207 - mild and 206, 210 - marked and 209 - severe and 208 - none, the “animals with minimal bile duct hyperplasia” value ([1]; 800 mg/kg i.p., day 8) was “Minimal bile duct hyperplasia was found in 2/5” and the urinary creatine [2, 5] was “Creatine: no increase”. The urinary taurine [2, 5] was “instances of raised”, the “urinary 2-oxoglutarate” value [2, 6] was 2-Oxoglutarate: Animals 203-205 showed no obvious change and reduced levels on days 2 and 3 but very high levels on day 7 and the urinary taurine [2, 6] was “increases; also recorded: Taurine: Animals 203-205 showed no clear change whilst; also recorded: animals 201 & 202 showed highly elevated levels”. The “urinary guanidinoacetic acid (GAA)” value ([2]; 800 mg/kg i.p., animals 201 and 202, hydrochloride) was “increases; also recorded: very much increased levels on day 3 and perhaps somewhat”, the urinary betaine ([2]; 800 mg/kg i.p., day 2 and day 3, animals 201 & 202, hydrochloride) was “increases; also recorded: Betaine: appeared very clearly in the day 2 and day 3 samples” and the urinary glucose [2, 7] was “Glucose: appeared to be elevated in the day 2 and day 3”. The urinary urocanic acid [2, 7] was “Urocanic acid: appeared clearly in the day 2 and day 3”, the “urinary glutamate and glutamine” value ([2]; 800 mg/kg i.p., day 3, animal 201) was “Glutamate and glutamine were elevated in the day 3 urine” and the urinary histidine ([2]; 800 mg/kg i.p., day 3, animal 201, hydrochloride) was “increased excretion”. For the same compound, the “urinary trimethylamine-N-oxide (TMAO)” value ([2]; 800 mg/kg i.p., day 3, animals 201 & 202, hydrochloride) was “decreases; also recorded: levels, TMAO had essentially disappeared from the day 3”, the “urinary bile acids (seen as C18 methyl)” value [2, 8] was “Bile acids: clearly increased (seen as C18 methyl) in the day” and the urinary threonine [2, 8] was “Threonine: was very clearly elevated in the day 3 samples”. The urinary creatine [2, 9] was “increases; also recorded: Creatine: Only animals 201 and 202 showed a clear increase”, the urinary hippurate [2, 9] was “decreased excretion; also recorded: Hippurate: was depleted in the day 3 samples from animals” and the “Total amount of galactosamine excreted in the urine from 0-24 hours post-dosing” value ([2]; 800 mg/kg i.p., individual animals 201-210, hydrochloride) was 40.0 mg and 26.2 mg and 0.4 mg and 0.1 mg and 0.3 mg and 14.9 mg and 8.4 mg and 2.3 mg and 28.2 mg and 30.5 mg. The “GGT (γ-glutamyl transferase)” value ([3]; 200 mg/kg i.p., individual animals 106-110) was 0 IU/L, the “5′-NT (5-nucleotidase)” value [3, 10] was 23 IU/L and 21 IU/L (2×) and 19 IU/L and 27 IU/L and the “A/G (albumin/globulin ratio)” value [3, 10] was 1.3 and 1.4 (3×) and 1.5. For the same compound, the “ALAT (alanine aminotransferase)” value [3, 10] was 43 IU/L and 46 IU/L and 49 IU/L and 38 IU/L and 47 IU/L, the “ALB (albumin)” value [3, 10] was 33 g/L (3×) and 37 g/L and 34 g/L and the “AP (alkaline phosphatase)” value [3, 10] was 606 IU/L and 495 IU/L and 566 IU/L and 697 IU/L and 637 IU/L. The “ASAT (aspartate aminotransferase)” value [3, 10] was 107 IU/L and 84 IU/L and 73 IU/L and 67 IU/L and 75 IU/L, the “BILI (bilirubin)” value [3, 10] was 0.09 mg/dL and 0.05 mg/dL and 0.11 mg/dL and 0.1 mg/dL and 0.12 mg/dL and the “CHOL (total cholesterol)” value [3, 10] was 73 mg/dL and 60 mg/dL and 91 mg/dL and 72 mg/dL and 81 mg/dL. For the same compound, the “CREA (creatinine)” value [3, 10] was 0.5 mg/dL (4×) and 0.4 mg/dL, the “GLUC (glucose)” value [3, 10] was 173 mg/dL and 184 mg/dL and 167 mg/dL and 138 mg/dL and 182 mg/dL and the “PROT (total protein)” value [3, 10] was 59 g/L and 56 g/L and 61 g/L and 58 g/L and 57 g/L. The “TBA (total bile acids)” value [3, 10] was 48.0 μmol/L and 22.0 μmol/L and 29.0 μmol/L (2×) and 23.0 μmol/L, the “TRIG (triglycerides)” value [3, 10] was 94 mg/dL and 158 mg/dL and 140 mg/dL and 109 mg/dL and 127 mg/dL and the “UREA (urea)” value [3, 10] was 29 mg/dL and 40 mg/dL and 33 mg/dL and 28 mg/dL (2×). For the same compound, the “5′-NT (5-nucleotidase)” value [3, 11] was 156 IU/L and 23 IU/L and 17 IU/L and 203 IU/L and 35 IU/L, the “A/G (albumin/globulin ratio)” value [3, 11] was 1.7 and 2.1 and 1.5 and 2.4 and 1.8 and the “ALAT (alanine aminotransferase)” value [3, 11] was 2350 IU/L and 178 IU/L and 45 IU/L and 4300 IU/L and 479 IU/L. The “ALB (albumin)” value [3, 11] was 32 g/L and 33 g/L (2×) and 34 g/L and 31 g/L, the “AP (alkaline phosphatase)” value [3, 11] was 787 IU/L and 983 IU/L and 666 IU/L and 999 IU/L and 852 IU/L and the “ASAT (aspartate aminotransferase)” value [3, 11] was 4320 IU/L and 264 IU/L and 79 IU/L and 10600 IU/L and 832 IU/L. For the same compound, the “BILI (bilirubin)” value [3, 11] was 1.26 mg/dL and 0.06 mg/dL and 0.11 mg/dL and 1.37 mg/dL and 0.12 mg/dL, the “CHOL (total cholesterol)” value [3, 11] was 60 mg/dL and 15 mg/dL and 61 mg/dL and 42 mg/dL and 46 mg/dL and the “CREA (creatinine)” value [3, 11] was 0.4 mg/dL (4×) and 0.5 mg/dL. For the same compound, the “GGT (γ-glutamyl transferase)” value [3, 11] was 2 IU/L and 0 IU/L (2×) and 5 IU/L and 1 IU/L, the “GLUC (glucose)” value [3, 11] was 100 mg/dL and 162 mg/dL and 168 mg/dL and 80 mg/dL and 130 mg/dL and the “PROT (total protein)” value [3, 11] was 51 g/L and 49 g/L and 56 g/L and 47 g/L and 48 g/L. For the same compound, the “TBA (total bile acids)” value [3, 11] was 493 µmol/L and 43.0 µmol/L and 20.0 µmol/L and 1300 µmol/L and 65.0 µmol/L, the “TRIG (triglycerides)” value [3, 11] was 38 mg/dL (2×) and 89 mg/dL and 148 mg/dL and 95 mg/dL and the “UREA (urea)” value [3, 11] was 45 mg/dL and 24 mg/dL and 29 mg/dL and 40 mg/dL and 25 mg/dL.
For NNC(=O)c1ccncc1 [isoniazid], the “Premature Death?” value [4] was “No”.

Source: patent US8577617B2, “Metabolic phenotyping” (priority 2002, dated 2013)
